Measured values reported in patent US20220273659A1, “HETEROCYCLIC COMPOUNDS AS KINASE INHIBITORS” (NUVATION BIO INC., priority 2019, published 2022).
pIC50: −log10 of the molar value.

Assays:
CDK6 = target: T1, CDK6 (Homo sapiens, UniProt Q00534); assay: In vitro kinase inhibition IC50, luminescence (ADP Glo), retinoblastoma substrate; format: biochemical; conditions: read-out: CDK6/D1 IC50
T1 construct: purchased Invitrogen PR8422B
Outline: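 IC50 derived by four-parameter logistic fit of percent inhibition, read as ADP-Glo luminescence. Reactions: 5 nM CDK6, 1 μM retinoblastoma, 25 μM ATP, test compound 0.1–200 nM final, 2 h at room temperature.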

CDK4 = target: T2, CDK4 (Homo sapiens, UniProt P11802); assay: as above; format: biochemical; conditions: read-out: CDK4/D1 IC50
T2 construct: purchased Invitrogen PR8064A
Outline: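 Inhibition of CDK4 was quantified by ADP Glo luminescence with retinoblastoma as substrate. Reactions held 5 nM kinase, 1 μM retinoblastoma and 25 μM ATP and ran 2H at room temperature. A Synergy Neo reader took signals 15 min and 45 min after detection reagent, and percent inhibition was fitted to a four-parameter logistic model in XLfit to obtain IC50.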

FMS kinase = target: T3, FMS kinase (Homo sapiens, UniProt P07333); assay: LanthaScreen Eu Kinase Binding Assay (ATP, fluorescent-PolyGT substrate); format: biochemical
T3 construct: purchased Invitrogen (Life Technologies)
Outline: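 TR-FRET read (ex 340, em 495 and 520 nm) after EDTA/Tb-labelled antibody stop; IC50 by four-parameter logistic fit of percent inhibition. Reaction: 1.25 nM FMS, 10 min compound preincubation (3-fold series), then 1 h at room temperature with 10 μM ATP and 200 nM fluorescent PolyGT.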

PI3Kδ kinase = target: T4, PI3Kδ kinase (Homo sapiens, UniProt O00329); assay: PI3Kδ kinase assay (ADP-Glo, Reaction Biology); format: biochemical
T4 construct: purchased Reaction Biology Corporation (assay service)
Outline: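 Kinase in Tris-HCl 40 mM pH 7.5, MgCl2 20 mM, orthovanadate 3 mM, DTT 2 mM, 0.05% CHAPS, 1% DMSO, preincubated 10 min at room temperature with compound (about 0.5 nM–100 μM). ATP started a 30-min reaction at 30 °C. ADP-Glo luminescence converted to μM ADP via standard curve; IC50 from nonlinear regression.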

[1] = test system: MCF-7-PR (palbociclib-resistant MCF-7) cells; assay: Cell viability in palbociclib-resistant cell line; format: cell-based; conditions: Homo sapiens, MCF7; Table 5; palbociclib-resistant cell line maintained at about 850 nM palbociclib
Procedure: Cells were treated with test compounds at 7 to 9 concentrations within a desired concentration range (e.g. 1.1 nM-10 μM) on day 2 by series diluting the test compound stock solution (10 mM in DMSO) with culture medium. Treatment duration was 24 Hr for BT-549 cells and 144 Hr (with a medium change at 72 Hr) for MCF-7 and DU4475 cells. Cell viability was assessed by Cell Titer-Glo® as recommended by Promega (Cat. No.: G7572), or by resazurin assay (Sigma Aldrich, Cat. No.: R7017) post treatment.
Cell viability data were plotted using GraphPad Prism (GraphPad Software, Inc., San Diego, Calif.). In addition, a nonlinear regression model with a sigmoidal dose response and variable slope within GraphPad Prism was used to calculate the IC50 value of individual test compounds.
The effects of test compounds in a palbociclib-resistant cell line and a parental, non-resistant cell line were compared. The palbociclib-resistant cell line (“MCF-7-PR”) was derived from the parental, non-resistant cell line (MCF-7 breast adenocarcinoma cells) by culture of cells over a period of three months in increasing concentrations of palbociclib, starting from about 350 nM and ending at about 850 nM, the final concentration at which they were then maintained in culture. The MCF-7-PR cells were checked using a cell viability assay to confirm that they had at least 5-fold resistance to palbociclib compared to parental MCF-7 cells, as measured by an increase in the cell viability IC50 values. Assessment of cell viability following treatment with palbociclib or test compounds was performed according to the method described above for MCF-7 cells.

T2 sequence (P11802 whole entry): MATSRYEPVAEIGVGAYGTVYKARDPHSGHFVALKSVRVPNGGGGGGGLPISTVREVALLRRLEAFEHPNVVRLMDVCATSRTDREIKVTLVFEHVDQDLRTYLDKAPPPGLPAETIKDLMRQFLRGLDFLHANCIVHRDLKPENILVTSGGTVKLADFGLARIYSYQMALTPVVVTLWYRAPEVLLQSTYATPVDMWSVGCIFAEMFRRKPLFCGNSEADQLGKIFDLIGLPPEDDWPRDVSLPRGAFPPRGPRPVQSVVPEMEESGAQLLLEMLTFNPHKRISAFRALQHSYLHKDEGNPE
T2 sequence (P24385 whole entry partner): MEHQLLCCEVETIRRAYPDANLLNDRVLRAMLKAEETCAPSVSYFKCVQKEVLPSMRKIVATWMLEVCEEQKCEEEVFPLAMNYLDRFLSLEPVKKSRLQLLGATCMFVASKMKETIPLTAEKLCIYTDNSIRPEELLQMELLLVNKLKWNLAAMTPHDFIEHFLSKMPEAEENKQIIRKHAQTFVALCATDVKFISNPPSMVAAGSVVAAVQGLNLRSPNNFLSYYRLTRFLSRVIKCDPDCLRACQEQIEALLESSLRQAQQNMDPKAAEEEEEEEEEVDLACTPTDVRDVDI
T1 sequence (Q00534 whole entry): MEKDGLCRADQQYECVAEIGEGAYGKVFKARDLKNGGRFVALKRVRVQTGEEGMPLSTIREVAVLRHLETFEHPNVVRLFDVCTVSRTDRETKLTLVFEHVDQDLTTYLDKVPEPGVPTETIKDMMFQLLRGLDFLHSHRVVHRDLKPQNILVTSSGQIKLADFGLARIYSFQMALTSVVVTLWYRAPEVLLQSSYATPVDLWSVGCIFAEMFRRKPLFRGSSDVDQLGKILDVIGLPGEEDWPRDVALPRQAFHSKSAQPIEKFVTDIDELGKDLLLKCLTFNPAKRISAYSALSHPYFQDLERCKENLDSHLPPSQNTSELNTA
T1 sequence (P24385 whole entry partner): as the sequence (P24385 whole entry partner) above
T4 sequence (O00329 whole entry): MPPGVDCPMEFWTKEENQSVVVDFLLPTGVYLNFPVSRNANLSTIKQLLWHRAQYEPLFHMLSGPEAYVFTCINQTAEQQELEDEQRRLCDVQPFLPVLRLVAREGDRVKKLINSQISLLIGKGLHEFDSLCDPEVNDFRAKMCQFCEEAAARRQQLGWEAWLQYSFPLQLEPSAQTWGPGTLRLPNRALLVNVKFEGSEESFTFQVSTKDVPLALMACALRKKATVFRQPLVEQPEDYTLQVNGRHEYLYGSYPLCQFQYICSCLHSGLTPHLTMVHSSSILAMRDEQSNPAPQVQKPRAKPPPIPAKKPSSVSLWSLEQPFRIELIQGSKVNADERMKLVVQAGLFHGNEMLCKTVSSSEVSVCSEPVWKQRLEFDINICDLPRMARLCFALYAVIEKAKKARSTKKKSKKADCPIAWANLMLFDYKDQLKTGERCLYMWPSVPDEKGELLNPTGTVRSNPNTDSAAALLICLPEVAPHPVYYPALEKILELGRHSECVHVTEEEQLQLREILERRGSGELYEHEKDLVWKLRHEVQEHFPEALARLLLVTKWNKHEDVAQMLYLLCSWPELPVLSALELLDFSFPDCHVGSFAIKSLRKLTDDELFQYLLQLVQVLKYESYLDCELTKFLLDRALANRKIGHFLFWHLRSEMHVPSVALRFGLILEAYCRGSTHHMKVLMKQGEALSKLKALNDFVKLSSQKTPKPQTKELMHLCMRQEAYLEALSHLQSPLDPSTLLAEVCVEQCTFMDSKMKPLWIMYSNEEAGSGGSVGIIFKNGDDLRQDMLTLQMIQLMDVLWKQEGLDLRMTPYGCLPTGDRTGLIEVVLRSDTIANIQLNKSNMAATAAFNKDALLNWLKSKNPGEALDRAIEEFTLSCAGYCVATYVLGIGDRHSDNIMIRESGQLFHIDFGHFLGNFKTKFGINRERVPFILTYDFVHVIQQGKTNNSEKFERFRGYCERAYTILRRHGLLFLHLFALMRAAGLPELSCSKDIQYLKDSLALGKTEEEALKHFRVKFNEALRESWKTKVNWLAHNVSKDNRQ
T4 sequence (P27986 whole entry partner): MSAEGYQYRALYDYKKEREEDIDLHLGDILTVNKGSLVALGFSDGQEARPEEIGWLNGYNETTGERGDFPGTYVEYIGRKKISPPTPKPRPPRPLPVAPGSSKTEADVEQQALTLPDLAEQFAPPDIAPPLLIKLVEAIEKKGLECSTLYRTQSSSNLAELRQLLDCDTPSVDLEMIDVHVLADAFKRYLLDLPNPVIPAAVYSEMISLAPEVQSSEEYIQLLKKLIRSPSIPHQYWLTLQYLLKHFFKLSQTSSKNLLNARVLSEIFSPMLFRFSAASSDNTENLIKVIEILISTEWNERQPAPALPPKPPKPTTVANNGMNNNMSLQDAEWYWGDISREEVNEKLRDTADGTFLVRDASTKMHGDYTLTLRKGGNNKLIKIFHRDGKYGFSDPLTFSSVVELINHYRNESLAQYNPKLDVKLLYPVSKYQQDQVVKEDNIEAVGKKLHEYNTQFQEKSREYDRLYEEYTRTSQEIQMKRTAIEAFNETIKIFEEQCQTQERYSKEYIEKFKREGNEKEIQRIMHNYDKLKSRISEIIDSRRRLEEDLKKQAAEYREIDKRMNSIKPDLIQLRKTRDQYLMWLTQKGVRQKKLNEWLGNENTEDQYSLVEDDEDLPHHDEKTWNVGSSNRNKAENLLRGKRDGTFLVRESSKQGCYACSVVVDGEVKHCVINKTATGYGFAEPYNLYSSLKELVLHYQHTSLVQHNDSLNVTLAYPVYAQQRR
T3 sequence (P07333 20-972): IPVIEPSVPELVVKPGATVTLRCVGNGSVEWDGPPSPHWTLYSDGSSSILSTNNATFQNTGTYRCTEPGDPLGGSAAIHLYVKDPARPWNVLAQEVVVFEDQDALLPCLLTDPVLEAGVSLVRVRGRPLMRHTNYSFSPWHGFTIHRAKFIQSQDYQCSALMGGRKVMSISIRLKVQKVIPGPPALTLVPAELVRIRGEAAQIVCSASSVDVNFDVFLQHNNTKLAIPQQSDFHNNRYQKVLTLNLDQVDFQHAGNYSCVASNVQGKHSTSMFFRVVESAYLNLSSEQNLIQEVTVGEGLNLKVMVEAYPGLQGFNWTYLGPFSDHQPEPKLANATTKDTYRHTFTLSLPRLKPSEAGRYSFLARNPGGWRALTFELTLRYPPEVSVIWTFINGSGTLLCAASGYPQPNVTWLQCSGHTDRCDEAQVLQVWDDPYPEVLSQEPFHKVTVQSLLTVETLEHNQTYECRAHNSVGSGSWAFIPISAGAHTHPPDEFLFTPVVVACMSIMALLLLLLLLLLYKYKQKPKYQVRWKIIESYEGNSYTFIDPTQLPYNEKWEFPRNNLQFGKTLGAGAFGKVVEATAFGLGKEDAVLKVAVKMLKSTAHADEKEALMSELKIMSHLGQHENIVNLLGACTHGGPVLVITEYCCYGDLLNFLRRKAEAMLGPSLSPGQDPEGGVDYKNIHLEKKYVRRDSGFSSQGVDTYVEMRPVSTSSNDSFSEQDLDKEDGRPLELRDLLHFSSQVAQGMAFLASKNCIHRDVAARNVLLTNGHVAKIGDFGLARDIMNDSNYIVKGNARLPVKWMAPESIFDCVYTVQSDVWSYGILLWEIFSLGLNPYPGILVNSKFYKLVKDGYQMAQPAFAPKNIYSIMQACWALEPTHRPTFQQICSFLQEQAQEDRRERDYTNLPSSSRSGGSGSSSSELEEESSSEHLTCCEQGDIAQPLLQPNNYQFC

Structure (SMILES) | pIC50 (CDK6) | pIC50 (CDK4) | pIC50 (FMS kinase) | pIC50 (PI3Kδ kinase) | pIC50 [1]
N#Cc1cc2cnc(Nc3ccc4c(c3)CCNC4)nc2n(C2CC3CC3C2)c1=O (stereo not drawn) [Compound No. 342, 8-(bicyclo[3.1.0]hexan-3-yl)-7-oxo-2-((1,2,3,4-tetrahydroisoquinolin-6-yl)amino)-7,8-dihydropyrido[2,3-d]pyrimidine-6-carbonitrile] | 7.66 | 8.00 | > 9.00 | 6.38 | 6.44
N#Cc1cc2cnc(Nc3ccc(N4CCNCC4)c(F)c3)nc2n(C2CCCC2)c1=O [Compound No. 13, 8-cyclopentyl-2-((3-fluoro-4-(piperazin-1-yl)phenyl)amino)-7-oxo-7,8-dihydropyrido[2,3-d]pyrimidine-6-carbonitrile] | 8.82 | 8.46 | > 9.00 | 6.25 | 6.32
CS(=O)(=O)N1CCC(Nc2ncc3cc(C#N)c(=O)n(C4CCCC4)c3n2)CC1 [Compound No. 93, 8-cyclopentyl-2-((1-(methylsulfonyl)piperidin-4-yl)amino)-7-oxo-7,8-dihydropyrido[2,3-d]pyrimidine-6-carbonitrile] | 8.40 | 8.59 |  | 4.92 | 6.04
N#Cc1cc2cnc(Nc3ccc4c(c3)CCNC4)nc2n(C2CCCC2)c1=O [Compound No. 31, 8-cyclopentyl-7-oxo-2-((1,2,3,4-tetrahydroisoquinolin-6-yl)amino)-7,8-dihydropyrido[2,3-d]pyrimidine-6-carbonitrile] | 8.05 | 8.30 | 9.00 | 6.89 | 6.61
CS(=O)(=O)N1CCC(Nc2ncc3cc(C#N)c(=O)n(C4CCC(F)(F)C4)c3n2)CC1 (racemic) [Compound No. 345, 8-(3,3-difluorocyclopentyl)-2-((1-(methylsulfonyl)piperidin-4-yl)amino)-7-oxo-7,8-dihydropyrido[2,3-d]pyrimidine-6-carbonitrile] | 7.26 | 7.40 | 6.17 | < 4.30 | 5.21
N#Cc1cc2cnc(Nc3ccc4c(c3)CNCC4)nc2n(C2CCCC2)c1=O [Compound No. 29, 8-cyclopentyl-7-oxo-2-((1,2,3,4-tetrahydroisoquinolin-7-yl)amino)-7,8-dihydropyrido[2,3-d]pyrimidine-6-carbonitrile] | 7.89 | 8.15 | 8.60 | 6.26 | 
CS(=O)(=O)N1CCC(Nc2ncc3cc(C#N)c(=O)n(C4CC5CC5C4)c3n2)CC1 (stereo not drawn) [Compound No. 341, 8-(bicyclo[3.1.0]hexan-3-yl)-2-((1-(methylsulfonyl)piperidin-4-yl)amino)-7-oxo-7,8-dihydropyrido[2,3-d]pyrimidine-6-carbonitrile] | 8.07 | 8.46 | 6.78 | < 4.30 | 6.16
